Measured values as given in ChEMBL document CHEMBL1201862, “PubChem BioAssay data set” (2004).
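Five concentrations, 48 hours, 96-well plates. GI50 = concentration required for 50% inhibition of growth.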 The source made the active and inactive calls. No stated cut-off is given here; in the data, active = GI50 up to about 1.1 µM and inactive = higher.

Experiments:
Assay in all cases: growth of human tumour cells (NCI), 48 h
EKVX = tested on: EKVX
MDA-N = tested on: MDA-N
MCF7 = tested on: MCF7
SN12C = tested on: SN12C
NCI-H23 = tested on: NCI-H23
HCC 2998 = tested on: HCC 2998
PC-3 = tested on: PC-3
NCI-H226 = tested on: NCI-H226
MOLT-4 = tested on: MOLT-4
SK-MEL-2 = tested on: SK-MEL-2
SK-MEL-5 = tested on: SK-MEL-5
ACHN = tested on: ACHN
SR = tested on: SR
K562 = tested on: K562
SF-539 = tested on: SF-539
SK-MEL-28 = tested on: SK-MEL-28
MDA-MB-231 = tested on: MDA-MB-231
KM12 = tested on: KM12
U-251 = tested on: U-251
DU-145 = tested on: DU-145

Measured: GI50

CCOC1=NC(C(F)(F)F)(C(F)(F)F)N=C(/N=C(/N)N(C)C(C(C)C)P(=O)(OC(C)C)OC(C)C)O1 (stereo not given)
inactive: EKVX 52 µM | MDA-N > 100 µM | MCF7 > 100 µM | SN12C 76 µM | NCI-H23 95.3 µM | HCC 2998 > 100 µM | PC-3 > 100 µM | NCI-H226 > 100 µM | MOLT-4 20.1 µM | SK-MEL-2 91.4 µM | SK-MEL-5 59.8 µM | ACHN 44.7 µM | SR 55.3 µM | K562 34.7 µM | SF-539 > 100 µM | SK-MEL-28 > 100 µM | MDA-MB-231 > 100 µM | KM12 78.2 µM | U-251 64.9 µM | DU-145 > 100 µM
